Experimental data from patent US12496298B2, “Natural killer cells” (Imperial College Innovations Limited, priority 2017, dated 2025).

System: mouse NK cell (NK1.1+CD3−) production from HPCs
Assay: In vitro development of NK cells from mouse HPCs (NK cell development assay, flow cytometry at Day 9)
Type: cell-based
Excerpt: FIG. 2: Timeline of NK cell development assay. HPCs were isolated and cultured plus FIt3L, IL-7 and SCF cytokines. At Day 2, they were then transferred onto OP9 stromal cells plus or minus drug in culture medium plus the IL-15 cytokine. The media of the cultures were changed at Day 5 and the cells were harvested and analysed at Day 9.
Lineage negative cells are enriched for Hematopoietic Progenitor Cells (HPCs). […] Cells were harvested on Day 9 and analysed using flow cytometry to determine the number of NK1.1^+CD3^− cells (FIG. 2). NK1.1^+ and CD3^− are two cell surface markers that can define mouse NK cells. OP9 stromal cells were readily excluded from the analysis, as the OP9 stromal cells used were GFP positive (FIG. 3B). Flow cytometry data were analysed as the fold increase, relative to the ‘No drug’ or untreated control in each experiment. This is because the absolute percentage of NK cell production varies between experiments.
Lineage negative HSCs were purified from mouse bone marrow by crushing the leg bones in Phosphate-buffered Saline (PBS) with 2% fetal calf serum (FCS) (STEMCELL Technologies), topped up to 40 ml with magnetic-activated cell sorting (MACS) buffer (PBS, 2 mM EDTA, 0.5% BSA, sterile and filtered) and centrifuged at 800 g for 2 minutes. The cells were resuspended in PE-conjugated cocktail, (20 μl of anti-B220 (RA3-6B2), anti-mouse CD2 (RM2-5, anti-Ter119 (TER119) and anti-NK.1.1 (PK136) and 5 μl of anti-CD11b (M1/70) and anti-GR-1 (RB6-8C5) antibodies (all from Bioscience)) incubated for 5 minutes at 4° C., centrifuged and resuspended in anti-PE microbeads for 15 minutes at 4° C. Cells were washed in MACS buffer and passed through MACS columns. This allowed negative selection of HPCs. Following lineage depletion, 50 μl of the cells was analysed using flow cytometry to check for purity.
The HPCs were plated and cultured in 24-well plates at a concentration of 5×10^5 HPCs/well in 1 ml of complete cytokine medium (Dulbecco's modified eagle medium (DMEM) (Sigma Aldrich), 10% FCS, 50 μM β-Mercaptoethanol, 10 ng/ml Flt3-ligand (FIt3L) (R&D Systems), 10 ng/ml IL-7 (R&D Systems), 100 ng/ml stem cell factor (SCF) (R&D Systems) and 1% P/S) for 2 days at 37° C., 5% CO2. The HPCs were then transferred onto OP9 cells at 4500 cells/well for 96-well plate experiments and 3×10^4 cells/well for 24-well plate experiments in mouse NK cells differentiation medium (Alpha-MEM (Sigma Aldrich) plus 20% FCS, 1% P/S and 30 ng/ml IL-15). Cells were left in culture at 37° C., 5% CO2 for 7 days with a change of mouse NK cells differentiation medium at day 3 or 4.
Cells to be analysed by flow cytometry were passed through 40 μm cell strainers to remove clumps and washed with PBS buffer, centrifuged at 800 g for 2 minutes and resuspended in 100 μl fluorescent activated cell sorting (FACS) buffer (PBS plus 1% BSA) with appropriate fluorochrome conjugated antibodies at a dilution of 1 in 300. Cells were stained with the following antibodies, all of which were anti-mouse and are from eBioscience unless specified: 2B4 (clone m2B4(B6) 458.1; BioLegend), CD2 (RM2-5), CD3 (17A2), CD11b (M1/70), CD19 (1D3), CD27 (LG.7F9), CD122 (TM-b1), CD127 (A7R34), B220 (RA3-6B2), ckit (ACK2), Flt3 (A2F10), Gr1 (RB6-8C5), NK1.1 (PK136), Sca1 (D7), Ter119 (TER119), NKp46 (29A1.4) anti-human CD45 (HI30), anti-human CD2 (RPA-2.10) and anti-human CD56 (CMSSB). The lineage cocktail contained B220, CD2, CD11b, Gr1, NK1.1, and Ter119. Cells were stained in the dark at 4° C. for 30 minutes and then washed with 2 ml FACS buffer, centrifuged and resuspend in 300 μl FACS buffer plus Propidium Iodide (PI) also at a dilution of 1 in 300. Flow cytometry was performed using LSRFortessa™ cell analyser (Becton Dickinson Bioscience), sorted using FACSAria (Becton Dickinson) as indicated and full data analysis was done using FlowJo Software.

**Q.** With `NC(=O)c1ccc(-c2nc(-c3ccc4c(c3)OCCO4)c(-c3ccccn3)[nH]2)cc1` [D4476] as the compound, how does the “NK cell production compared to 'No drug' control” value (20 μM added Day 2, analysed Day 9, screen (FIG. 3)) read?
**A.** significant increase

**Q.** How did the “NK cell production reduced” value (GSK4112 tested at 2, 5, 10 and 20 μM (FIG. 6), concentration not given) turn out when `CC(C)(C)OC(=O)CN(Cc1ccc(Cl)cc1)Cc1ccc([N+](=O)[O-])s1` [GSK4112] was run?
**A.** ~50%

**Q.** And the “effect on NK cell production” value (summary in Discussion)?
**A.** decreasing NK cell production

**Q.** Which “NK cell production compared to 'No drug' control” value (5 μM added Day 2, analysed Day 9, screen (FIG. 3)) does the source give for `N#Cc1ccc(-c2csc(NN=C3CCCC3)n2)cc1` [Remodelin] here?
**A.** significant increase
